# Laboratory results from patent US20210155715A1, “USE OF TRYPTOPHAN DERIVATIVES AND L-METHIONINE FOR PROTEIN FORMULATION” (Genentech, Inc., priority 2018, published 2021).
# Columns and labels:
# [1] = AAPH chemical oxidation stress of mAb1/mAb2, LC-MS peptide mapping; assay type: physicochemical; conditions: 0.3 mM NAT
# Description: Antibodies were subjected to AAPH stress followed by peptide mapping to identify the CDR and Fc residues that were sensitive to oxidation (Dion et al., manuscript in preparation). […] If a residue oxidized by >5% relative to the control, it was deemed sensitive and monitored throughout the course of the experiments. […] In brief, samples were denatured, reduced, carboxylmethylated and subjected to trypsin digestion. Peptides were separated on an Acquity UPLC Peptide CSH C18 column using a water/acetonitrile/formic acid gradient on a Waters Acquity H-Class UHPLC coupled to a Thermo Q Exactive Plus high-resolution mass spectrometer. Data was processed using Thermo Scientific PepFinder™ and Xcalibur™ software. Integration was performed on extracted ion chromatograms of monoisotopic m/z using the most abundant charge state(s) for the native and oxidized peptides. The percent oxidation was calculated by dividing the peak area of the oxidized peptides by the summed peak area of the native and oxidized peptides. The major tryptophan degradation products (+16 and +32, in addition to +4, +20, and +48 for highly oxidized sites) were summed and used to calculate tryptophan oxidation. Only methionine sulfoxide (M+16) was used to calculate methionine oxidation, as methionine sulfone (M+32) was not observed under these conditions. […]
# [2] = molecular target: T1, neurokinin-1 (NK-1) receptor (Homo sapiens, UniProt P25103); assay: Binding to the NK-1 receptor in U373MG human astrocytoma cells; conditions: room temperature
# T1 construct: U373MG human astrocytoma cells which endogenously express the receptor; endogenous in cells; host or cells: U373MG human astrocytoma cells
# T1 sequence (P25103 whole entry): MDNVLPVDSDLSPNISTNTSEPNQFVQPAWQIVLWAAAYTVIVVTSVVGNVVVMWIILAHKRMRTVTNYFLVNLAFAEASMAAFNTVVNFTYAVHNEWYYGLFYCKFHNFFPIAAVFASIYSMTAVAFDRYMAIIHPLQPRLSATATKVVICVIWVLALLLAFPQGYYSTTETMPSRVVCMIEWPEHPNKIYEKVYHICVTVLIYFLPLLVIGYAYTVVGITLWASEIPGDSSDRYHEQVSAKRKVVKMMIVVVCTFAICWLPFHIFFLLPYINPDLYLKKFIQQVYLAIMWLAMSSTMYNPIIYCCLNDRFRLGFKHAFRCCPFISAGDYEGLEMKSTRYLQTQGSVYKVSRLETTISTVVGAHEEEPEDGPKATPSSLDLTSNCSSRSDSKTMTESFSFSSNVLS
# Experimental: The activity of NAT was assessed in binding, cellular and nuclear receptor functional and tissue bioassays. Binding to the neurokinin-1 (NK-1) receptor was assessed in U373MG human astrocytoma cells which endogenously express the receptor (Eistetter et al. (1992) Functional characterization of Neurokinin-1 receptors on human U373MG astrocytoma cells. Glia 6(2):89-95; Heuillet et al. (1993) J. Neurochem 60(3):868-876), and compared to the reference agonist [Sar^9, Met(O2)^11]-SP or to the reference antagonist L 733,060. NAT or the reference compounds were incubated with U373MG cells at room temperature; all concentrations were assayed in duplicate.
# [3] = Light exposure stress (high intensity UV) of mAb1/mAb2, LC-MS peptide mapping; assay type: physicochemical; conditions: 5 mM L-Methionine
# Description: Antibodies were subjected to AAPH stress followed by peptide mapping to identify the CDR and Fc residues that were sensitive to oxidation (Dion et al., manuscript in preparation). Kabat numbering was used to identify variable fragment (Fv) residues, while EU nomenclature (Edelman et al. (1969) Proc Natl Acad Sci USA 63(1):78-85) was used to identify Fc residues. If a residue oxidized by >5% relative to the control, it was deemed sensitive and monitored throughout the course of the experiments. Peptide mapping and analysis information was as reported in Dion et al. (manuscript in preparation). In brief, samples were denatured, reduced, carboxylmethylated and subjected to trypsin digestion. […] The percent oxidation was calculated by dividing the peak area of the oxidized peptides by the summed peak area of the native and oxidized peptides. […]
# Proteins (10 mg/mL) were exposed to light stress with a high intensity UV component (300 kilolux-hours visible light and 50 W·h/m^2 of near UV (320-400 nm) light over a 6-hour period) at various NAT concentrations (0-1 mM NAT) to determine the efficacy of NAT as an antioxidant against photo-oxidation (FIGS. 3A-B). […] Residues that were determined to be insensitive to light oxidation under antioxidant-free conditions remained insensitive to light when NAT was added to the formulation under the tested conditions.
oxidation of CDR and Fv tryptophan residues [1],IC50 for agonist binding to the NK-1 receptor [2],IC50 for antagonist binding to the NK-1 receptor [2],"impact on oxidation of CDR and Fv residues ([3]; alone or with 0.3 mM NAT, UV light)",UV light-induced Fc methionine oxidation ([3]; mAb1 and mAb2),Structure (SMILES)
< 10%,could not be calculated,could not be calculated,,,"CC(=O)NC(Cc1c[nH]c2ccccc12)C(=O)O (racemic) [NAT, N-acetyl-DL-tryptophan]"
,,,no beneficial impact,improved,"CSCC[C@H](N)C(=O)O [L-Methionine, L-methionine]"
